Assay results: patent US20100113430A1, “THIOXANTHENE DERIVATES USEFUL TO TREAT INFECTIOUS DISEASES” (BKG PHARMA APS, priority 2007, published 2010)
≈ marks a conversion by molar mass, not a printed value.

What was measured:
[1] = system: Enterococcus faecalis resistant clinical isolates; experiment: MIC/IC90, resistant clinical isolates of Enterococcus faecalis; type: cell-based
Protocol: (§1) Cell growth was tested using the Minimal Inhibitory Concentration (MIC) susceptibility tests by use of the microdilution broth method in accordance to the NCCLS Guidelines (NCCLS Guidelines, Methods for Dilution Antimicrobial Susceptibility Tests for Bacteria That Grow Aerobically; Approved Standard, Sixth Edition, Volume 23; Number 2). The minimum inhibitory concentration (MIC), is defined ad the lowest concentration of drug which inhibits growth of the test organism, in the sense that no visible growth is detected (total inhibition of growth). In example 2 MIC of the compounds used on fungal microorganisms was determined from the IC90 measurements according to NCCLS Guidelines.
(§2) A log phase culture of bacteria was diluted with fresh pre-warmed Mueller-Hinton medium and adjusted to a defined OD at 600 nm in order to give a final concentration of 1×10^4-5 bacteria/ml medium. The bacterial culture was transferred to microtiter-plates and culture was added to each well. Drug was added to the bacterial culture in the wells as two-fold dilution series of drug in order to give final concentrations ranging from 0.03 to 128 μg/ml. Trays were incubated at 37° C. by shaking in a robot analyzer, PowerWavex, software KC^4′ Kebo.Lab, Copenhagen, for 16 h and optical densities were measured at 600 nm during the incubation time in order to record growth curves. Wells containing bacterial culture without drug were used as controls to ensure correct inoculum size and bacterial growth during the incubation. Cultures were tested in order to detect contaminations. Each experiment was repeated in triplicate. MIC values represent the mean values of two separate triplicate experiments. Intra- and interassay variation was <5%.
Inhibition 90 (IC90) is defined as: OD responding a 90% growth inhibition.
Clinically relevant isolates were cultured and assayed as described above.

uninfected MT4 cells = experiment: Cytotoxic effect in uninfected MT4 cultures; type: cell-based; details: six days
Protocol: Compounds were examined for possible antiviral activity against strain IIIB of HIV-1 using MT4 cells as target cells. MT4 cells were incubated with virus (0.005 MOI) and growth medium containing the test dilutions of compound(s) for six days in parallel with virus-infected and uninfected control cultures without compound added. Expression of HIV in the cultures was indirectly quantified using the MTT assay as previously described. Compounds mediating less than 30% reduction of HIV expression were considered without biological activity. Compounds were tested in parallel for cytotoxic effect in uninfected MT4 cultures containing the test dilutions of compound as described above. Cultures for test of both antiviral activity and cytotoxic effect were set up in triple duplicates, 200 ml per culture in micro titre plates. A 30% inhibition of cell growth relative to control cultures was considered significant. The 50% inhibitory concentration was determined by interpolation from the plots of percent inhibition versus concentration of compound. CC50 is defined as the inhibitory concentration that reduces cellular growth or viability of uninfected cells by 50%.

[2] = system: multiresistant clinical isolate of Staphylococcus epidermidis; experiment: MIC, microdilution broth method (NCCLS), Staphylococcus epidermidis; type: cell-based
Protocol: as §1
as §2, with “Drug was added to the bacterial culture in the wells as two-fold dilution series of drug in order to give final concentrations ranging from 0.03 to 128 μg/ml.” left out, “triplicate.” for “triplicate. MIC values represent the mean values of two separate triplicate experiments. Intra- and interassay variation was <5%.”
A clinically relevant isolate of Staphylococcus epidermidis was cultured and assayed as described above for susceptibility towards the compounds listed in table 1.

[3] = system: Enterococcus faecalis BG VSE-92; experiment: Mouse peritonitis/sepsis model; type: in vivo, NMRI mice; details: 25 mg/kg s.c.
Protocol: A clinical multiresistant isolate of Enterococcus faecalis BG VSE-92 from human urine was used.
Female NMRI mice (age, approximately 6 to 8 weeks; weight, 30±2 g) were used for the mouse […] peritonitis model (as described below).
Bacterial suspensions were prepared from fresh overnight cultures (made from frozen stock cultures) on 5% blood agar plates as described above. The inoculum for the mouse peritonitis model was prepared immediately before use and was adjusted at 540 nm of giving a density of approximately 10^7 CFU/ml. The size of the inoculum was determined by viability counting on 5% blood agar.
The mice were injected intraperitoneally with 0.5 ml of the enterococcal suspension, resulting in bacteremia within 1 h of inoculation. Antibiotic therapy was initiated 1 h after inoculation. N-dealkyl-trans-clopenthixol was administered subcutaneously in the neck region in a volume of 0.7 ml per dose. Ten mice were in each treatment group. Inoculated untreated control mice were included in all trials. (Method reference: Erlandsdottir et al; Antimicrob Agents Chemother. 2001 April; 45(4):1078-85)
The effects of the various treatment regimens were determined during 6 h of treatment by evaluation of bacterial counts in the […]. After the mice were killed, blood were immediately diluted 10-fold in saline, from which 20 μl was plated onto 5% blood agar plates in spots, with subsequent counting of colonies after incubation overnight at 35° C. The lowest detection levels for bacterial counts in blood were 50 CFU/ml.
The bactericidal efficacies of the treatment regimens in the mouse models were calculated by subtracting the results for each treated mouse from the mean results for control mice at the end of therapy (6 h). A P value of <0.05 was considered significant. All statistical comparisons were two-tailed.

[4] = Enterococcus faecalis 10, BLR, CR
[5] = 6 hours after inoculation, infected mice

Clc1ccc2c(c1)/C(=C/CCN1CCNCC1)c1ccccc1S2 [N-dealkyl-trans-clopenthixol, trans-1-(3-(2-chloro-thioxanthen-9-ylidene)propyl)piperazine]
IC90 ([1]; Enterococcus faecalis 1, VanA): 0.6 µg/mL (≈ 1.68 µM) | MIC ([1]; Enterococcus faecalis 1, VanA): 1 µg/mL (≈ 2.8 µM) | IC90 ([1]; Enterococcus faecalis 2, VanA): 0.6 µg/mL (≈ 1.68 µM) | MIC ([1]; Enterococcus faecalis 2, VanA): 1 µg/mL (≈ 2.8 µM) | MIC ([1]; Enterococcus faecalis 3, VanA): 1 µg/mL (≈ 2.8 µM) | IC90 ([1]; Enterococcus faecalis 4, VanB): 0.6 µg/mL (≈ 1.68 µM) | MIC ([1]; Enterococcus faecalis 4, VanB): 1 µg/mL (≈ 2.8 µM) | IC90 ([1]; Enterococcus faecalis 5, Van B): 1 µg/mL (≈ 2.8 µM) | MIC ([1]; Enterococcus faecalis 5, Van B): 2 µg/mL (≈ 5.6 µM) | IC90 ([1]; Enterococcus faecalis 6, VanB): 0.6 µg/mL (≈ 1.68 µM) | MIC ([1]; Enterococcus faecalis 6, VanB): 1 µg/mL (≈ 2.8 µM) | IC90 ([1]; Enterococcus faecalis 7, VanA): 0.6 µg/mL (≈ 1.68 µM) | MIC ([1]; Enterococcus faecalis 7, VanA): 1 µg/mL (≈ 2.8 µM) | IC90 ([1]; Enterococcus faecalis 8, HLAR): 0.6 µg/mL (≈ 1.68 µM) | MIC ([1]; Enterococcus faecalis 8, HLAR): 1 µg/mL (≈ 2.8 µM) | IC90 ([1]; Enterococcus faecalis 9, HLAR): 0.6 µg/mL (≈ 1.68 µM) | MIC ([1]; Enterococcus faecalis 9, HLAR): 1 µg/mL (≈ 2.8 µM) | IC90 [1, 4]: 0.6 µg/mL (≈ 1.68 µM) | MIC [1, 4]: 1 µg/mL (≈ 2.8 µM) | CC50 (uninfected MT4 cells): > 3000 nM | MIC ([2]; Staphylococcus epidermidis multiresistant isolate, Example 6, isomers alone and 1:1 mixture): 0.5 µg/mL (≈ 1.4 µM) | MIC ([2]; multiresistant clinical isolate of Staphylococcus epidermidis, Example 1): 0.5 µg/mL (≈ 1.4 µM) | Cfu/ml blood (median) [3, 5]: 1.55 × 10^4 Cfu/ml blood | Log (cfu/ml blood) (median) [3, 5]: 4.19 Log (cfu/ml blood) | decrease of number of bacteria per ml of blood ([3]; p<0.05): approx. 2 log
